Results: ChEMBL document CHEMBL1201862, “PubChem BioAssay data set” (2004)
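All cell lines were grown in 96-well plates and treated with compound for 48 hours. GI50: concentration for 50% inhibition of growth.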 Active and inactive are the calls of the source. Cut-off read from the data, not from the text of the source: active = GI50 up to about 1.1 µM and inactive = higher.

Assays:
Experiment in all cases: NCI-60 cell line screen, 48 h
MOLT-4 = tested on: MOLT-4
T47D = tested on: T47D
HT-29 = tested on: HT-29
OVCAR-3 = tested on: OVCAR-3
MDA-N = tested on: MDA-N
RXF 393 = tested on: RXF 393
TK-10 = tested on: TK-10
SR = tested on: SR
SW-620 = tested on: SW-620
SN12C = tested on: SN12C
HCT-116 = tested on: HCT-116
SK-MEL-2 = tested on: SK-MEL-2
KM12 = tested on: KM12
OVCAR-4 = tested on: OVCAR-4
ACHN = tested on: ACHN
NCI/ADR-RES = tested on: NCI/ADR-RES
UACC-257 = tested on: UACC-257
HL-60 = tested on: HL-60
NCI-H460 = tested on: NCI-H460
Hs-578T = tested on: Hs-578T

Measured: GI50

CC1(C)C[C@H]2[C@H](O)C(CO)=C3C(=O)[C@@H](O)[C@]3(C)[C@H]2C1
inactive: MOLT-4 17.4 µM | T47D 74.6 µM | HT-29 85.7 µM | OVCAR-3 > 100 µM | MDA-N 80.2 µM | RXF 393 61.7 µM | TK-10 > 100 µM | SR 50.2 µM | SW-620 > 100 µM | SN12C > 100 µM | HCT-116 75.9 µM | SK-MEL-2 > 100 µM | KM12 > 100 µM | OVCAR-4 > 100 µM | ACHN > 100 µM | NCI/ADR-RES > 100 µM | UACC-257 > 100 µM

COc1ccccc1Nc1nc2c([nH]1)c(=O)n(C)c(=O)n2C
inactive: MOLT-4 > 10 µM | T47D > 10 µM | HT-29 > 10 µM | HL-60 > 10 µM | MDA-N > 10 µM | RXF 393 > 10 µM | TK-10 > 10 µM | SR > 10 µM | SW-620 > 10 µM | SN12C > 10 µM | KM12 > 10 µM | OVCAR-4 > 10 µM | UACC-257 > 10 µM

COc1ccc2c(c1OC)C(=O)N/C2=C\c1c(CCN(C)C)cc2c(c1OC)OCO2
inactive: MOLT-4 > 100 µM | T47D 27.9 µM | HT-29 > 100 µM | OVCAR-3 > 100 µM | HL-60 > 100 µM | NCI-H460 > 100 µM | MDA-N 25.6 µM | RXF 393 22.7 µM | TK-10 > 100 µM | SR > 100 µM | SW-620 > 100 µM | SN12C > 100 µM | HCT-116 83.2 µM | Hs-578T 13.6 µM | KM12 > 100 µM | OVCAR-4 > 100 µM | ACHN > 100 µM | UACC-257 51.2 µM

NC(=S)Nc1c(S(N)(=O)=O)cc(S(N)(=O)=O)c(Cl)c1Cl
inactive: MOLT-4 > 100 µM | HT-29 > 100 µM | OVCAR-3 > 100 µM | HL-60 > 100 µM | MDA-N > 100 µM | RXF 393 > 100 µM | TK-10 > 100 µM | SW-620 > 100 µM | SN12C > 100 µM | HCT-116 > 100 µM | SK-MEL-2 > 100 µM | Hs-578T > 100 µM | KM12 > 100 µM | OVCAR-4 > 100 µM | NCI/ADR-RES > 100 µM | UACC-257 > 100 µM

Cc1c2c(Cl)c3c(c(Cl)c2c(C)c2c(Cl)c4c(c(Cl)c12)C(c1ccccc1)(c1ccccc1)C4(c1ccccc1)c1ccccc1)C(c1ccccc1)(c1ccccc1)C3(c1ccccc1)c1ccccc1
inactive: MOLT-4 > 100 µM | T47D > 100 µM | HT-29 > 100 µM | OVCAR-3 > 100 µM | NCI-H460 > 100 µM | MDA-N > 100 µM | RXF 393 > 100 µM | TK-10 > 100 µM | SR > 100 µM | SW-620 > 100 µM | SN12C > 100 µM | HCT-116 > 100 µM | SK-MEL-2 > 100 µM | KM12 > 100 µM | OVCAR-4 > 100 µM | ACHN > 100 µM | NCI/ADR-RES > 100 µM | UACC-257 > 100 µM

CN1CCN(C(=S)N(C)C(=O)c2ccco2)CC1
inactive: MOLT-4 > 100 µM | T47D > 100 µM | HT-29 > 100 µM | OVCAR-3 > 100 µM | HL-60 > 10 µM | NCI-H460 > 100 µM | MDA-N > 100 µM | RXF 393 > 100 µM | TK-10 > 100 µM | SR > 100 µM | SW-620 > 100 µM | SN12C > 100 µM | SK-MEL-2 > 100 µM | Hs-578T > 100 µM | KM12 > 100 µM | OVCAR-4 > 100 µM | ACHN > 100 µM | UACC-257 > 100 µM
